Data as given in US20120284853A1, “HERBICIDE-TOLERANT PLANTS” (BASF AGROCHEMICAL PRODUCTS, B.V., priority 2009, published 2012).

Key:
rice plants = assay: Greenhouse spray test of M0 regenerants, rated for herbicide injury; format: in vivo; conditions: 400-1600 g ai/ha with 0.1% methylated seed oil, subset 800 g ai/ha, rated 1 and 2 weeks after treatment
Method: Selected mutants and escapes were transferred to small pots. Wild-type cultivars and 3 biovars of red rice were germinated from seed to serve as controls.
After ca. 3 weeks post-transplant, M0 regenerants were sprayed using a track sprayer with 400-1600 g ai/ha cycloxydim (BAS 517H) supplemented with 0.1% methylated seed oil. After the plants had adapted to greenhouse conditions, a subset were sprayed with 800 g ai/ha cycloxydim. Once sprayed, plants were kept on drought conditions for 24 hours before being watered and fertilized again. Sprayed plants were photographed and rated for herbicide injury at 1 (FIG. 3) and 2 weeks after treatment (FIG. 4). […] FIGS. 5-15 provide nucleic acid and/or amino acid sequences of acetyl-Coenzyme A carboxylase enzymes from various plants. FIG. 17 provides a graph showing results for mutant rice versus various ACCase inhibitors.

[1] = test system: ACCase-inhibitor tolerant rice plants; assay: Field treatment of ACCase-inhibitor tolerant rice plants; format: in vivo; conditions: 600 g/ha treatment; data not shown
[2] = test system: rice calli derived from Oryza sativa subsp. indica; assay: Kill curves of rice calli in tissue culture (toxic levels of ACCase inhibitors); format: cell-based; conditions: determined by kill curves and observations of continued culture; rice calli on R001M
Method: FIG. 1 is a bar graph showing relative growth rice calli derived from Oryza sativa subsp. indica grown in the presence of difference selection levels of herbicide.
Once tissue culture conditions were determined, further establishment of selection conditions were established through the analysis of tissue survival in kill curves with cycloxydim, tepraloxydim, sethoxydim (FIG. 1) or haloxyfop (not shown). Careful consideration of accumulation of the herbicide in the tissue, as well as its persistence and stability in the cells and the culture media was performed. Through these experiments, a sub-lethal dose has been established for the initial selection of mutated material.
After the establishment of the starting dose of sethoxydim, cycloxydim, tepraloxydim, and haloxyfop in selection media, the tissues were selected in a step-wise fashion by increasing the concentration of the ACCase inhibitor with each transfer until cells are recovered that grew vigorously in the presence of toxic doses (see FIG. 2). […] Over 26,000 calli were subjected to selection for 4-5 subcultures until the selective pressure was above toxic levels as determined by kill curves and observations of continued culture. Toxic levels were determined to be 50 μM sethoxydim, 20 μM cycloxydim, 2.5 μM tepraloxydim (FIG. 1) and 10 μM haloxyfop (not shown).

SMILES	herbicide injury (rice plants; control plants and tissue culture escapes)	herbicide injury (rice plants; plants containing the I1,781(Am)L heterozygous mutation)	herbicide tolerance phenotype in the field [1]	Toxic levels [2]
CCCC(=NOCC)C1=C(O)CC(C2CCCSC2)CC1=O (centres unmarked) [cycloxydim]	heavily damaged	No injury	Herbicide tolerance phenotypes as described herein have also been exhibited	
CCC/C(=N\OCC)C1=C(O)CC(CC(C)SCC)CC1=O (centres unmarked) [sethoxydim]				50 µM
CC/C(=N\OC/C=C/Cl)C1=C(O)CC(C2CCOCC2)CC1=O (centres unmarked) [tepraloxydim]				2.5 µM
